4 compounds from ChEMBL document CHEMBL5465560, “Selectivity Literature for EUbOPEN Chemogenomic Library” (2024) can be followed below.

Structures are written as SMILES. Positions count from the first letter of the chain named.

The target of experiment [1] is Maternal embryonic leucine zipper kinase (Homo sapiens) (UniProt Q14680). Particulars: at 10 µM.
In experiment [2] the target is Insulin receptor (Homo sapiens, UniProt P06213). The experiment in a line: Selectivity interaction (SelectScreen profiling (Invitrogen)) EUB0000607a INSR. Particulars: at 2 µM.
Experiment [3] relates to T1, Receptor-type tyrosine-protein kinase FLT3 (Homo sapiens), P36888 [K663Q].
T1 sequence (whole entry): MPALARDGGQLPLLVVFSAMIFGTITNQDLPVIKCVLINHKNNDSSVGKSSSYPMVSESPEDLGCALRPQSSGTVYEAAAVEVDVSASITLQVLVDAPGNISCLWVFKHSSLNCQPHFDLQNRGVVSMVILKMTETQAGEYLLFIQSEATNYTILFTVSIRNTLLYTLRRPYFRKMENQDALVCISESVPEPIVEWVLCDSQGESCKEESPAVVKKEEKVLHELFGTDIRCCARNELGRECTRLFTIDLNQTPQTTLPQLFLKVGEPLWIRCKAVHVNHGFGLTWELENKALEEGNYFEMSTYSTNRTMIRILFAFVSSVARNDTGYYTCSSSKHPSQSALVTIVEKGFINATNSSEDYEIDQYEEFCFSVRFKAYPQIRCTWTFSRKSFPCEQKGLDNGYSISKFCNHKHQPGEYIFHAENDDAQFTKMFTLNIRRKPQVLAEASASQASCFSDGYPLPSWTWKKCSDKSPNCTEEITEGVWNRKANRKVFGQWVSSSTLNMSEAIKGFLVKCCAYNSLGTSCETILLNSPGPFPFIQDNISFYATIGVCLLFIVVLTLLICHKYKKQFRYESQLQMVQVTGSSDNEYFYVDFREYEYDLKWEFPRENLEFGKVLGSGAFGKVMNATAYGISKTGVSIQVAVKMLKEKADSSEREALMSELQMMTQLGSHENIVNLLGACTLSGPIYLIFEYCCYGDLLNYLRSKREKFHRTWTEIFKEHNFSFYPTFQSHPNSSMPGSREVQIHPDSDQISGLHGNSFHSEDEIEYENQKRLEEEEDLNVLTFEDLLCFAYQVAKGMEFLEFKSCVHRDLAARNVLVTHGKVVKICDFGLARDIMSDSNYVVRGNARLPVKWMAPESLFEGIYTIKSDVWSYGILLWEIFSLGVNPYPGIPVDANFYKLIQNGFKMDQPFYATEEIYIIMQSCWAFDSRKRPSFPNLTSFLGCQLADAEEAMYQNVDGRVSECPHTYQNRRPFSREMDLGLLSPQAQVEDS
As to the kind of experiment: (§1) Selectivity interaction (KinomeScan (DiscoverX)) EUB0000595a FLT3. Particulars: at 10 µM.

Experiment [4] has as its system T2, Receptor-type tyrosine-protein kinase FLT3 (Homo sapiens), P36888 [R834Q].
T2 sequence (whole entry): T1 sequence (whole entry) with Q663K, R834Q
The experiment is described as §1. Conditions: at 10 µM.

For experiment [5], the target named is T3, Kinase suppressor of Ras 1 (Homo sapiens) (UniProt Q8IVT5).
T3 sequence (whole entry): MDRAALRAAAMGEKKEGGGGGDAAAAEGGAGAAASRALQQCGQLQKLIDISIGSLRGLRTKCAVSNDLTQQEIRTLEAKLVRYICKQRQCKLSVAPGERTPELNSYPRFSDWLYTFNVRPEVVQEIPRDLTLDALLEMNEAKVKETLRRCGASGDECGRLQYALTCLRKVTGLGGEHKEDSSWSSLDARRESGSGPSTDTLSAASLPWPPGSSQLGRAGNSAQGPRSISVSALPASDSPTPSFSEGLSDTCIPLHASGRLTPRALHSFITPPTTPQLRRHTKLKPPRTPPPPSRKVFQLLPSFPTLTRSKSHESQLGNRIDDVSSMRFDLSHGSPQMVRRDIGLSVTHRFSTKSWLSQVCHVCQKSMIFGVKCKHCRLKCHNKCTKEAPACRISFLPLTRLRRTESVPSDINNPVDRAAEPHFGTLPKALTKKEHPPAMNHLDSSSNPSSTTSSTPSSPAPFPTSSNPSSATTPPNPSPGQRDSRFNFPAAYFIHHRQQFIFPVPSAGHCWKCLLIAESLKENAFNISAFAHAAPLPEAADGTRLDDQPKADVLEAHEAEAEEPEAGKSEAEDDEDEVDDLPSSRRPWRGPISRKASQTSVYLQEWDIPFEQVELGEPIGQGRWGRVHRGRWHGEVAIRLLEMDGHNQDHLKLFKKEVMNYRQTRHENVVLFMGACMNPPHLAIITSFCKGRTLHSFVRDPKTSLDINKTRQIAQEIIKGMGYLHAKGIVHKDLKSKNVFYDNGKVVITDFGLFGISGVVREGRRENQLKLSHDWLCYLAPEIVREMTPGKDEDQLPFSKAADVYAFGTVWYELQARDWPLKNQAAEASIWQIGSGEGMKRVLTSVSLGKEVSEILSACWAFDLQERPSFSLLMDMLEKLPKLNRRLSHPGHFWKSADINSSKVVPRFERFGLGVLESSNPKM
The experiment in a line: Selectivity interaction (Kinase panel (KiNativ target engagement assay in Jurkat cells)) EUB0001635a KSR1. Conditions: at 1 µM. Format: cell-based.

Insulin receptor, sequence (P06213 28-758 limits assumed): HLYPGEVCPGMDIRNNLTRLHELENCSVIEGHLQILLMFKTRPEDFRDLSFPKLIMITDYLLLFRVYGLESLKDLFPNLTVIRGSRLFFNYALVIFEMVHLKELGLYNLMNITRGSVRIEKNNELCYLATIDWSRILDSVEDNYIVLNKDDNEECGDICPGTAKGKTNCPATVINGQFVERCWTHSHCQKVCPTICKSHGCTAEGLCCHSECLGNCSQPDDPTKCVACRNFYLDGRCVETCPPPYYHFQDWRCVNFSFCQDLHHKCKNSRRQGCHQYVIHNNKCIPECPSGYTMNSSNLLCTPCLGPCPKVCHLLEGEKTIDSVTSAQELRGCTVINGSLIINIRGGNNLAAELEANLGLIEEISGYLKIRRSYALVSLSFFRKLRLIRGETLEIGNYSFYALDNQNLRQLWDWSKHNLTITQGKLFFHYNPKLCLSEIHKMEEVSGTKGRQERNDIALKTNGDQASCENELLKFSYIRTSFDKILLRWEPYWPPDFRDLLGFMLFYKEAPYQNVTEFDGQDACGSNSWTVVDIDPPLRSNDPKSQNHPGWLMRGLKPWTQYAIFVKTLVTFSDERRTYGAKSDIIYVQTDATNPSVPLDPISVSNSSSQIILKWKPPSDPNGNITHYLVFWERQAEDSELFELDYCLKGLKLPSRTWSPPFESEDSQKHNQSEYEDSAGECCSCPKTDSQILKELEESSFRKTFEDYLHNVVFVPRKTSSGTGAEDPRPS
Insulin receptor, sequence (P06213 763-1382 limits assumed): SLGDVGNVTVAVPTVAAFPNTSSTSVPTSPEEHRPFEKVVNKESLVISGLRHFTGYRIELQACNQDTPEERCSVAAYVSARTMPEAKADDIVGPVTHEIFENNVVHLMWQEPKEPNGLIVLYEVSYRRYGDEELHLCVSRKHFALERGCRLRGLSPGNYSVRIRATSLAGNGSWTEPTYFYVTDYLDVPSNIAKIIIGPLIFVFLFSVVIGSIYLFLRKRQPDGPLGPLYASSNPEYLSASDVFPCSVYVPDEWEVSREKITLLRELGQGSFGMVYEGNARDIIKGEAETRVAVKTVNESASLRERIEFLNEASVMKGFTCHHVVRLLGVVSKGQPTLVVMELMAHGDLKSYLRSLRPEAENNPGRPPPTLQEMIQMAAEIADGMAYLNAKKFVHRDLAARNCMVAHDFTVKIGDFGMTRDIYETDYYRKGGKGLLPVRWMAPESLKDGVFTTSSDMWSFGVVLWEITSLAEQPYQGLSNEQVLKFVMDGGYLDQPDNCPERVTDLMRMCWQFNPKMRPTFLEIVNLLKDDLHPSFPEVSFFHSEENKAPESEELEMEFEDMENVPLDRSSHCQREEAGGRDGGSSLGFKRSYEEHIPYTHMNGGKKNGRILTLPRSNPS
Maternal embryonic leucine zipper kinase (Homo sapiens), sequence (Q14680 whole entry, looked up): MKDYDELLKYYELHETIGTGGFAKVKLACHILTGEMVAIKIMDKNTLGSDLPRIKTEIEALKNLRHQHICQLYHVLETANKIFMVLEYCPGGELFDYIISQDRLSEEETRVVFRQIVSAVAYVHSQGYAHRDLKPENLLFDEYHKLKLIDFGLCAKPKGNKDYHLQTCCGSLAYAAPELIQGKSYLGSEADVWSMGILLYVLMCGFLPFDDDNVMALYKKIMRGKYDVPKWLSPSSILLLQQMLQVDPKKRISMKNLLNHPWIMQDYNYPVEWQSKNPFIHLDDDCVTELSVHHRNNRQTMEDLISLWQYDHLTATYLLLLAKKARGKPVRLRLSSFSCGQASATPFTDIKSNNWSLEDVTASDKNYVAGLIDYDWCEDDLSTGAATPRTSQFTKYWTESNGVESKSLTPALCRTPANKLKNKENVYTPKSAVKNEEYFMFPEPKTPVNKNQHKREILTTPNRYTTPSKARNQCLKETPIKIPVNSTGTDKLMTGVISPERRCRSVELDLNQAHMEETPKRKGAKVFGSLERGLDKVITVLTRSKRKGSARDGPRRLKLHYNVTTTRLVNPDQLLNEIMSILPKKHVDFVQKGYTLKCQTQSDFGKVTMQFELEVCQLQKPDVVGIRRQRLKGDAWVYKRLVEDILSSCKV

In experiment [1], `Cc1cc([C@@H](C)Nc2ccccc2C(=O)O)c2nc(N3CCOCC3)cc(=O)n2c1` [AZD-6482] registered a % of control of 100%.
For the compound `CNC(=O)Nc1ccc(-c2nc(N3CC4CCC(C3)O4)c3cnn(C4CCC5(CC4)OCCO5)c3n2)cc1`, in experiment [2], the % of inhibition was determined as 4%.
Consider `COCC(=O)NC/C=C/c1ccc2ncnc(Nc3ccc(Oc4ccc(C)nc4)c(C)c3)c2c1` [CP-724714], for which the % of control in experiment [3] amounted to 79%; in experiment [4], 100%.
As for `C=CC(=O)Nc1ccc(C(=O)Nc2[nH]nc3c2CN(C(=O)N[C@H](CN(C)C)c2ccccc2)C3(C)C)cc1`, in experiment [5], the % of engagement was -1.6%.
